# Molecular target: T1, human PAH with the R408W mutation (Homo sapiens, UniProt P00439, R408W)
# T1 construct: expressed in transfected cells
# T1 sequence (P00439 1-452 R408W): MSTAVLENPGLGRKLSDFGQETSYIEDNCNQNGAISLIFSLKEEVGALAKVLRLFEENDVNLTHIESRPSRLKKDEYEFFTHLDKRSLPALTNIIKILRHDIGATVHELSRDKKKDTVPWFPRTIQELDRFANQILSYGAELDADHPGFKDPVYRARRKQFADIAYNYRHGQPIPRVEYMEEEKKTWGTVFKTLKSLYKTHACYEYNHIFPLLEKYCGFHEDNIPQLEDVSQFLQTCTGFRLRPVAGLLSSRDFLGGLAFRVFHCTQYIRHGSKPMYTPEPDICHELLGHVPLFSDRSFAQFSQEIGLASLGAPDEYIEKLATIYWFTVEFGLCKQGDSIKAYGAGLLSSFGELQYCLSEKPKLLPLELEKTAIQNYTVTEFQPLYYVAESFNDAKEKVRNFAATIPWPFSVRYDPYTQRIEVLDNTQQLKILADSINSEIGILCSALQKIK
# Assay: Cell Based Phenylalanine Flux Assay
# Parameters: scale not given here
# Settings: A375 R408W cells, 24 hrs with compound, then 20 μM sepiapterin and 800 μM 13C9,15N-Phenylalanine for 4 hours; 13C-Tyrosine by LC-MS; average where tested multiple times
row,AC50,Structure (SMILES)
1,"E, E",Cc1nc(C(=O)N2CCc3[nH]cnc3C2c2ncc3ccccc3n2)n(C)n1 (centres unmarked)
2,"E, E",Cc1ocnc1CC(=O)N1CCc2[nH]cnc2C1c1cn2ccccc2n1 (centres unmarked)
3,"E, E","COCCNc1nnc(C(=O)N2CC(C)c3[nH]cnc3C2c2cc3ccccc3cn2)o1 [(4S, 7S) diastereomer of 5-[4-(isoquinolin-3-yl)-7-methyl-1H]"

# Same assay, conditions: A375 R408W cells, 24 hrs with compound, then 20 μM sepiapterin and 800 μM 13C9,15N-Phenylalanine for 4 hours; 13C-Tyrosine by LC-MS; average where tested multiple times; read-out: AC50
row,Structure (SMILES),AC50 [nM]
1,CC(C)(O)c1cc(C(=O)N2CCc3[nH]cnc3C2c2ccc3ccccc3n2)[nH]n1 (centres unmarked),> 5000
2,CN(C)c1nnc(C(=O)N2CCc3[nH]cnc3C2c2ncc3ccccc3n2)o1 (centres unmarked),1000 to 5000
3,O=C(CCc1ncco1)N1CCc2[nH]cnc2C1c1cn2ccccc2n1 (centres unmarked),1000 to 5000
4,O=C(c1nnc(N2CCOCC2)o1)N1CCc2[nH]cnc2C1c1ccc2ccccc2n1 (centres unmarked),> 5000
5,O=C(c1nnc(C2CC(F)(F)C2)o1)N1CCc2[nH]cnc2C1c1ccc2ccccc2n1 (centres unmarked),1000 to 5000
6,Cc1nnc(C(=O)N2CCc3[nH]cnc3C2c2ccc3ccccc3n2)o1 (centres unmarked),1000 to 5000
7,O=C(c1nc2ccccc2s1)N1CCc2[nH]cnc2C1c1ccc2ccccc2c1 (centres unmarked),> 5000

# Further lines, results first:
row,AC50 [nM],Structure (SMILES)
1,1000 to 5000,Cc1nc(CCN2CC(F)C2)oc1C(=O)N1CCc2[nH]cnc2C1c1ccc2ccccc2n1 (centres unmarked)
2,> 5000,O=C(c1cnn(CC(F)(F)F)c1Cl)N1CCc2[nH]cnc2C1c1ccc2ccccc2n1 (centres unmarked)
3,> 5000,"CC1CN(C(=O)c2nnc(N3CC(F)C3)o2)C(c2cc3ccccc3cn2)c2nc[nH]c21 [(4S, 7S) diastereomer of 3-[5-[5-(3-fluoroazetidin-1-yl)-1,3]"
4,1000 to 5000,FC(F)c1nnc(N2CCc3[nH]cnc3C2c2ccc3ccccc3n2)o1 (centres unmarked)

# Same assay, conditions: A375 cells expressing human R408W PAH; 24 hrs compound incubation; 13C-Tyrosine by LC-MS; average where tested multiple times; read-out: AC50
row,Structure (SMILES),AC50 [nM]
1,"O=C(c1cnc(-c2ccccn2)o1)N1CCc2[nH]cnc2[C@@H]1c1cc2ccccc2cn1 [Example 309, (S)-(4-(isoquinolin-3-yl)-6,7-dihydro-1H-imidazo[4,5-c]pyridin-5(4H)-yl)(2-(pyridin-2-yl)oxazol-5-yl)methanone]",> 5000
2,"O=C(c1nnc(-c2ccc(F)cc2)o1)N1CCc2[nH]cnc2[C@H]1c1cc2ccccc2cn1 [Example 342, (R)-(5-(4-fluorophenyl)-1,3,4-oxadiazol-2-yl)(4-(isoquinolin-3-yl)-6,7-dihydro-1H-imidazo[4,5-c]pyridin-5(4H)-yl)methanone]",< 500
3,"Cn1ccc(-c2nnc(C(=O)N3CCc4[nH]cnc4C3c3ccc4ccccc4n3)o2)n1 (stereo in doubt) [Example 86, (S)-(5-(1-methyl-1H-pyrazol-3-yl)-1,3,4-oxadiazol-2-yl)(4-(quinolin-2-yl)-6,7-dihydro-1H-imidazo[4,5-c]pyridin-5(4H)-yl)methanone]",1000 to 5000
4,"Cc1nnc(CCC(=O)N2CCc3[nH]cnc3[C@H]2c2cc3ccccc3cn2)o1 [Example 345, (R)-1-(4-(isoquinolin-3-yl)-6,7-dihydro-1H-imidazo[4,5-c]pyridin-5(4H)-yl)-3-(5-methyl-1,3,4-oxadiazol-2-yl)propan-1-one]",500 to 1000
5,"CC(O)c1nc(Cl)c(C(=O)N2CCc3[nH]cnc3[C@H]2c2ccc3ccccc3n2)o1 (single isomer, unassigned) [Example 138]",< 500
6,"O=C(c1nnc(-c2c(F)cccc2F)o1)N1CCc2[nH]cnc2[C@H]1c1cc2ccccc2cn1 [Example 334, (R)-(5-(2,6-difluorophenyl)-1,3,4-oxadiazol-2-yl)(4-(isoquinolin-3-yl)-6,7-dihydro-1H-imidazo[4,5-c]pyridin-5(4H)-yl)methanone]",< 500
7,"Cc1nnc(C(=O)N2CC3(CC3)c3[nH]cnc3[C@H]2c2cc3ccccc3cn2)o1 [Example 490, (R)-(4′-(isoquinolin-3-yl)spiro[cyclopropane-1,7′-imidazo[4,5-c]pyridin]-5′(1′H,4′H,6′H)-yl)(5-methyl-1,3,4-oxadiazol-2-yl)methanone]",< 500

# The remaining lines, values ahead:
row,AC50 [nM],Structure (SMILES)
1,< 500,"Cc1ccc(-c2nnc(C(=O)N3CCc4[nH]cnc4C3c3ccc4ccccc4n3)o2)nc1 (stereo in doubt) [Example 104, (R)-(5-(5-methylpyridin-2-yl)-1,3,4-oxadiazol-2-yl)(4-(quinolin-2-yl)-6,7-dihydro-1H-imidazo[4,5-c]pyridin-5(4H)-yl)methanone]"
2,1000 to 5000,"CC(C)(O)c1nnc(C(=O)N2CCc3[nH]cnc3C2c2ccc3ccccc3n2)o1 (stereo in doubt) [Example 28, (R)-(5-(2-hydroxypropan-2-yl)-1,3,4-oxadiazol-2-yl)(4-(quinolin-2-yl)-6,7-dihydro-1H-imidazo[4,5-c]pyridin-5(4H)-yl)methanone]"
3,500 to 1000,"Fc1ccc(-c2nnc(N3CCc4[nH]cnc4C3c3ccc4ccccc4n3)o2)cc1 (stereo in doubt) [Example 20, (R)-2-(4-fluorophenyl)-5-(4-(quinolin-2-yl)-6,7-dihydro-1H-imidazo[4,5-c]pyridin-5(4H)-yl)-1,3,4-oxadiazole]"
4,< 500,"O=C(Cc1cncs1)N1CCc2[nH]cnc2[C@H]1c1cc2ccccc2cn1 [Example 373, (R)-1-(4-(isoquinolin-3-yl)-6,7-dihydro-1H-imidazo[4,5-c]pyridin-5(4H)-yl)-2-(thiazol-5-yl)ethanone]"
5,< 500,"Cc1nnc(C(=O)N2CCc3[nH]cnc3[C@H]2c2cc3ccccc3cn2)o1 [Example 318, (R)-(4-(isoquinolin-3-yl)-6,7-dihydro-1H-imidazo[4,5-c]pyridin-5(4H)-yl)(5-methyl-1,3,4-oxadiazol-2-yl)methanone]"
6,1000 to 5000,"C[C@@H]1CN(C(=O)c2oc(C(C)(C)O)nc2C2CC2)[C@@H](c2cc3ccccc3cn2)c2nc[nH]c21 [Example 401, (4-cyclopropyl-2-(2-hydroxypropan-2-yl)oxazol-5-yl)((4S,7R)-4-(isoquinolin-3-yl)-7-methyl-6,7-dihydro-1H-imidazo[4,5-c]pyridin-5(4H)-yl)methanone]"
7,< 500,"Cc1cc(-c2nnc(C(=O)N3CCc4[nH]cnc4[C@H]3c3cc4ccccc4cn3)o2)nn1C [Example 472, (R)-(5-(1,5-dimethyl-1H-pyrazol-3-yl)-1,3,4-oxadiazol-2-yl)(4-(isoquinolin-3-yl)-6,7-dihydro-1H-imidazo[4,5-c]pyridin-5(4H)-yl)methanone]"
8,< 500,"O=C(c1cnn2cc(Cl)ccc12)N1CCc2[nH]cnc2[C@H]1c1cc2ccccc2cn1 [Example 467, (R)-(6-chloropyrazolo[1,5-a]pyridin-3-yl)(4-(isoquinolin-3-yl)-6,7-dihydro-1H-imidazo[4,5-c]pyridin-5(4H)-yl)methanone]"
9,1000 to 5000,"Cc1ncoc1C(=O)N1CCc2[nH]cnc2[C@H]1c1cn2ccccc2n1 [Example 228, (R)-(4-(imidazo[1,2-a]pyridin-2-yl)-6,7-dihydro-1H-imidazo[4,5-c]pyridin-5(4H)-yl)(4-methyloxazol-5-yl)methanone]"
10,1000 to 5000,"N#Cc1ncoc1C(=O)N1CCc2[nH]cnc2[C@@H]1c1ncc2ccccc2n1 [Example 148, (R)-5-(4-(quinazolin-2-yl)-4,5,6,7-tetrahydro-1H-imidazo[4,5-c]pyridine-5-carbonyl)oxazole-4-carbonitrile]"
11,< 500,"Cc1nc(-c2ccccn2)oc1C(=O)N1C[C@H](C)c2[nH]cnc2[C@H]1c1cc2ccccc2cn1 [Example 403, ((4R,7S)-4-(isoquinolin-3-yl)-7-methyl-6,7-dihydro-1H-imidazo[4,5-c]pyridin-5(4H)-yl)(4-methyl-2-(pyridin-2-yl)oxazol-5-yl)methanone]"
12,< 500,"O=C(c1cnn2cc(N3CCCC3)ccc12)N1CCc2[nH]cnc2[C@H]1c1cc2ccccc2cn1 [Example 489, (R)-(4-(isoquinolin-3-yl)-6,7-dihydro-1H-imidazo[4,5-c]pyridin-5(4H)-yl)(6-(pyrrolidin-1-yl)pyrazolo[1,5-a]pyridin-3-yl)methanone]"
13,> 5000,"Cc1nc(-c2ccccn2)oc1C(=O)N1CCc2[nH]cnc2C1c1ccc2ccccc2n1 (stereo in doubt) [Example 32, (S)-(4-methyl-2-(pyridin-2-yl)oxazol-5-yl)(4-(quinolin-2-yl)-6,7-dihydro-1H-imidazo[4,5-c]pyridin-5(4H)-yl)methanone]"
14,< 500,"O=C(c1nnc(-c2cccnc2)o1)N1CCc2[nH]cnc2[C@H]1c1ncc2ccccc2n1 [Example 177, (S)-(5-(pyridin-3-yl)-1,3,4-oxadiazol-2-yl)(4-(quinazolin-2-yl)-6,7-dihydro-1H-imidazo[4,5-c]pyridin-5(4H)-yl)methanone]"
15,> 5000,"O=C(c1nnc(C2CC2)o1)N1CCc2[nH]cnc2[C@@H]1c1ncc2ccccc2n1 [Example 140, (R)-(5-cyclopropyl-1,3,4-oxadiazol-2-yl)(4-(quinazolin-2-yl)-6,7-dihydro-1H-imidazo[4,5-c]pyridin-5(4H)-yl)methanone]"
16,500 to 1000,"O=C(c1cnc(-c2ccccn2)o1)N1CCc2[nH]cnc2C1c1ccc2ccccc2n1 (stereo in doubt) [Example 61, (R)-(2-(pyridin-2-yl)oxazol-5-yl)(4-(quinolin-2-yl)-6,7-dihydro-1H-imidazo[4,5-c]pyridin-5(4H)-yl)methanone]"
17,< 500,"O=C(c1nnc(-c2ccc(F)cc2)o1)N1CCc2[nH]cnc2C1c1ccc2ccccc2n1 (stereo in doubt) [Example 11, (R)-(5-(4-fluorophenyl)-1,3,4-oxadiazol-2-yl)(4-(quinolin-2-yl)-6,7-dihydro-1H-imidazo[4,5-c]pyridin-5(4H)-yl)methanone]"
